Data taken from ChEMBL document CHEMBL1909046, “DrugMatrix in vitro pharmacology data”.
pIC50, pKi: −log10 of the molar value.

Key:
[1] = target: T1, Alpha-2C adrenergic receptor (Homo sapiens, UniProt P18825); assay: DRUGMATRIX: Adrenergic Alpha-2C radioligand binding (ligand: [3H] MK-912); type: cell membranes, Sf9, Membrane; conditions: sf9
T1 sequence (P18825 whole entry): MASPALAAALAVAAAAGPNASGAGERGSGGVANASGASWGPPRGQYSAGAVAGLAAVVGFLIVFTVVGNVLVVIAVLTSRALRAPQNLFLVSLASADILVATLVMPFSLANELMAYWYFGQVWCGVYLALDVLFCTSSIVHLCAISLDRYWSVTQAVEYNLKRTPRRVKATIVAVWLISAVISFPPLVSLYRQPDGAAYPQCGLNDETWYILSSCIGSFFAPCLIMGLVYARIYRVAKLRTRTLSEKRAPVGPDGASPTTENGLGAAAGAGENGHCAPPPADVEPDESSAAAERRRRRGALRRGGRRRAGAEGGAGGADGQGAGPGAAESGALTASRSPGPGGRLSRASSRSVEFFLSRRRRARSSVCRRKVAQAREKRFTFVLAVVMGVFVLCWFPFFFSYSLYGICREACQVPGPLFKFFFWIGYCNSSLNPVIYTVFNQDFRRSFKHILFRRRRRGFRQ

[2] = target: Beta-2 adrenergic receptor (Homo sapiens, UniProt P07550); assay: DRUGMATRIX: Adrenergic beta2 radioligand binding (ligand: [3H] CGP-12177); type: cell membranes, CHO, Membrane; conditions: cho; Not Active = under 50% inhibition at 10 µM
[3] = target: D(1A) dopamine receptor (Homo sapiens, UniProt P21728); assay: DRUGMATRIX: Dopamine D1 radioligand binding (ligand: [3H] SCH-23390); type: cell membranes, CHO, Membrane; conditions: cho; Not Active = under 50% inhibition at 10 µM
[4] = DRUGMATRIX: Glutamate, Kainate radioligand binding (ligand: [3H] Kainic acid); type: cell membranes, Rattus norvegicus, Wistar, Brain, Membrane; conditions: Not Active = under 50% inhibition at 10 µM
[5] = target: T2, Neuropeptide Y receptor type 2 (Homo sapiens, UniProt P49146); type: cell membranes, KAN-TS, Membrane; conditions: kan-ts; note: in other assays of this panel Not Active means under 50% inhibition at 10 µM
T2 sequence (P49146 whole entry): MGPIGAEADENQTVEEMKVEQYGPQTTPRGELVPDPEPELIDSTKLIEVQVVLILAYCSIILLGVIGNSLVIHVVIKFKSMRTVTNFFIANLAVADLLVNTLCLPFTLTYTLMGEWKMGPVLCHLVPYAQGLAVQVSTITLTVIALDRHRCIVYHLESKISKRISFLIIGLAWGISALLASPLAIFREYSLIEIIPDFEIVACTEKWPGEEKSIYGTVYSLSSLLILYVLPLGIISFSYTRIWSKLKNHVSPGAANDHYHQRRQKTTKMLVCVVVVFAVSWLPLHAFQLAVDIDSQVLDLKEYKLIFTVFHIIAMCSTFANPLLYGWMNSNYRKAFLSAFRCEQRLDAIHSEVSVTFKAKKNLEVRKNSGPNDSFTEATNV

[6] = target: T3, Progesterone receptor (Bos taurus, UniProt Q690N0); assay: DRUGMATRIX: Progesterone radioligand binding (ligand: [3H] R-5020); type: tissue-based, Uterus; conditions: Not Active = under 50% inhibition at 10 µM
T3 sequence (Q690N0 whole entry): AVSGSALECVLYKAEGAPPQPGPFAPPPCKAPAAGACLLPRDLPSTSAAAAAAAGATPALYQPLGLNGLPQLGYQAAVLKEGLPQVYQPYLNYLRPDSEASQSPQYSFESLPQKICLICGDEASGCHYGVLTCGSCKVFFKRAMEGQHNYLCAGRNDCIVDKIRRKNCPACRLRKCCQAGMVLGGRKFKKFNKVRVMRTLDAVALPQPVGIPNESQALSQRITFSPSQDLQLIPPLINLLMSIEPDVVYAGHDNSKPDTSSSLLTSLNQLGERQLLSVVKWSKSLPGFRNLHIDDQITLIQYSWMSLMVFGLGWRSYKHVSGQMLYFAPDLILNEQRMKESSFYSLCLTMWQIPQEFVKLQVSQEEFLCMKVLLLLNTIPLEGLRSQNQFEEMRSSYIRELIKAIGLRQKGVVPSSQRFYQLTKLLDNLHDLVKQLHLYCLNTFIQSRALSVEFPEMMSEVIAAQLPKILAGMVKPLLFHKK

Sequence of D(1A) dopamine receptor (P21728 whole entry): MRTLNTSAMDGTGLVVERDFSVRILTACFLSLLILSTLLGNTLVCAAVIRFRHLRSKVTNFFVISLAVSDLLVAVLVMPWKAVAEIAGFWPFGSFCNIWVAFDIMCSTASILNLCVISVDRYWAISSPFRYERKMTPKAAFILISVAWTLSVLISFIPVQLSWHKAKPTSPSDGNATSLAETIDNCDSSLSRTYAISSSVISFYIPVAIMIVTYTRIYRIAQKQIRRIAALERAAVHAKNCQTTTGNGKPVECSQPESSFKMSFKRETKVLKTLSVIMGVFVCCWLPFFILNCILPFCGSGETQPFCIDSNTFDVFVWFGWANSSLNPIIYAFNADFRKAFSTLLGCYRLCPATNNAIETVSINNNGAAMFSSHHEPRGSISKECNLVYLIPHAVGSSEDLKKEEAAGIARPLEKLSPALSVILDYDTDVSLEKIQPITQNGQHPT

Row | Molecule | IC50 [1] | IC50 [2] | IC50 [3] | IC50 [4] | Ki [4] | IC50 [5] | IC50 [6] | pIC50 ([6]; read-out: IC50) | pKi ([6]; read-out: Ki) | Ki [1] | Ki [2] | Ki [3] | Ki [5] | Ki [6]
1 | Cc1c(OCC(F)(F)F)ccnc1C[S+]([O-])c1nc2ccccc2[nH]1 (stereo not drawn) [LANSOPRAZOLE] | Not Active | Not Active | Not Active | Not Active | Not Active | Not Active | Not Active |  |  |  |  |  |  | 
2 | O=c1cc(N2CCOCC2)oc2c(-c3ccccc3)cccc12 [LY-294002] | Not Active | Not Active | Not Active | Not Active | Not Active | Not Active | Not Active |  |  |  |  |  |  | 
3 | COc1ccc2[nH]cc(CCNC(C)=O)c2c1 [MELATONIN] | Not Active | Not Active | Not Active | Not Active | Not Active | Not Active | Not Active |  |  |  |  |  |  | 
4 | NC(=O)C[S+]([O-])C(c1ccccc1)c1ccccc1 (stereo not drawn) [MODAFINIL] | Not Active | Not Active | Not Active | Not Active | Not Active | Not Active | Not Active |  |  |  |  |  |  | 
5 | CCN(CC)CCOCCC1=CCC2CC1C2(C)C (stereo not drawn) [MYRTECAINE] | Not Active | Not Active | Not Active | Not Active | Not Active | Not Active | Not Active |  |  |  |  |  |  | 
6 | O=C(O)c1cccnc1Nc1cccc(C(F)(F)F)c1 [NIFLUMIC ACID] | Not Active | Not Active | Not Active | Not Active | Not Active | Not Active | Not Active |  |  |  |  |  |  | 
7 | O=C(N/N=C/c1ccc([N+](=O)[O-])o1)c1cc([N+](=O)[O-])cc([N+](=O)[O-])c1O [NIFURSOL] | Not Active | Not Active | Not Active | Not Active | Not Active | Not Active | Not Active |  |  |  |  |  |  | 
8 | COC(=O)Nc1nc2ccc(C(=O)c3cccs3)cc2[nH]1 [NOCODAZOLE] | Not Active | Not Active | Not Active | Not Active | Not Active | Not Active | Not Active |  |  |  |  |  |  | 
9 | C#CC1(O)CC[C@H]2[C@@H]3CCC4=CC(=O)CC[C@@H]4[C@H]3CC[C@@]21CC (stereo partly drawn) [NORGESTREL] | Not Active | Not Active | Not Active | Not Active | Not Active | Not Active |  | 8.45 | 9.34 |  |  |  |  | 
10 | COC(=O)Nc1nc2ccc([S+]([O-])c3ccccc3)cc2[nH]1 (stereo not drawn) [OXFENDAZOLE] | Not Active | Not Active | Not Active | Not Active | Not Active | Not Active | Not Active |  |  |  |  |  |  | 
11 | CC(=O)O[C@H]1C(=O)[C@@]2(C)[C@H]([C@H](OC(=O)c3ccccc3)[C@]3(O)C[C@H](OC(=O)[C@H](O)[C@@H](NC(=O)c4ccccc4)c4ccccc4)C(C)=C1C3(C)C)[C@]1(OC(C)=O)CO[C@@H]1C[C@@H]2O [PACLITAXEL] | Not Active | Not Active | Not Active | Not Active | Not Active | Not Active | Not Active |  |  |  |  |  |  | 
12 | C[n+]1ccc(-c2cc[n+](C)cc2)cc1.[Cl-].[Cl-] [PARAQUAT DICHLORIDE] | Not Active | Not Active | Not Active | Not Active | Not Active | Not Active | Not Active |  |  |  |  |  |  | 
13 | CCn1cc(C(=O)O)c(=O)c2cnc(N3CCCC3)nc21 [PIROMIDIC ACID] | Not Active | Not Active | Not Active | Not Active | Not Active | Not Active | Not Active |  |  |  |  |  |  | 
14 | C[n+]1ccccc1/C=N/O.[Cl-] [PRALIDOXIME CHLORIDE] | Not Active | Not Active | Not Active | Not Active | Not Active | Not Active | Not Active |  |  |  |  |  |  | 
15 | C[C@]12C=CC(=O)C=C1CC[C@@H]1[C@@H]2[C@@H](O)C[C@@]2(C)[C@H]1CC[C@]2(O)C(=O)CO [PREDNISOLONE] | Not Active | Not Active | Not Active | Not Active | Not Active | Not Active | Not Active |  |  |  |  |  |  | 
16 | CC(=O)[C@H]1[C@H](C#N)C[C@H]2[C@@H]3CC=C4C[C@@H](O)CC[C@]4(C)[C@H]3CC[C@@]21C [PREGNENOLONE CARBONITRILE] | Not Active | Not Active | Not Active | Not Active | Not Active | Not Active | Not Active |  |  |  |  |  |  | 
17 | CCCN(CCC)S(=O)(=O)c1ccc(C(=O)O)cc1 [PROBENECID] | Not Active | Not Active | Not Active | Not Active | Not Active | Not Active | Not Active |  |  |  |  |  |  | 
18 | CCCOc1ccc(C(=O)OCCN(CC)CC)cc1N [PROPARACAINE] | Not Active | Not Active | Not Active | Not Active | Not Active | Not Active | Not Active |  |  |  |  |  |  | 
19 | CC(C)c1cccc(C(C)C)c1O [PROPOFOL] | Not Active | Not Active | Not Active | Not Active | Not Active | Not Active | Not Active |  |  |  |  |  |  | 
20 | C[C@@H]1O[C@@H](O[C@@H]2C=C3CC[C@@H]4[C@H](CC[C@]5(C)[C@@H](c6ccc(=O)oc6)CC[C@]45O)[C@@]3(C)CC2)[C@H](O)[C@H](O)[C@H]1O [PROSCILLARIDIN] | Not Active | Not Active | Not Active | Not Active | Not Active | Not Active | Not Active |  |  |  |  |  |  | 
21 | Oc1cccc(O)c1O [PYROGALLOL] | Not Active | Not Active | Not Active | Not Active | Not Active | Not Active | Not Active |  |  |  |  |  |  | 
22 | AURANOFIN | Not Active | Not Active | Not Active | Not Active | Not Active | Not Active | Not Active |  |  | Not Active | Not Active | Not Active | Not Active | Not Active
23 | GADOPENTETATE DIMEGLUMINE | Not Active | Not Active | Not Active | Not Active | Not Active | Not Active | Not Active |  |  | Not Active | Not Active | Not Active | Not Active | Not Active
24 | GENTAMICIN | Not Active | Not Active | Not Active | Not Active | Not Active | Not Active | Not Active |  |  | Not Active | Not Active | Not Active | Not Active | Not Active
25 | GRAMICIDIN | Not Active | Not Active | Not Active | Not Active | Not Active | Not Active | Not Active |  |  | Not Active | Not Active | Not Active | Not Active | Not Active
26 | NYSTATIN | Not Active | Not Active | Not Active | Not Active | Not Active | Not Active | Not Active |  |  | Not Active | Not Active | Not Active | Not Active | Not Active
